From ChEMBL document CHEMBL1201862, “PubChem BioAssay data set” (2004)
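All cell lines were grown in 96-well plates and treated with compound for 48 hours. Abbreviation: GI50, concentration required for 50% inhibition of growth.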 The source made the active and inactive calls. Cut-off read from the data, not from the text of the source: active = GI50 up to about 1.1 µM and inactive = higher.

Assays:
Assay in all cases: NCI anticancer screen, dose series, 48 h
[1] = tested on: RPMI-8226
[2] = tested on: UACC-62
[3] = tested on: OVCAR-8
[4] = tested on: M14
[5] = tested on: RXF 393
[6] = tested on: SK-MEL-28
[7] = tested on: LOX IMVI
[8] = tested on: HOP-92
[9] = tested on: NCI-H226
[10] = tested on: NCI-H522
[11] = tested on: OVCAR-4
[12] = tested on: UO-31
[13] = tested on: COLO 205
[14] = tested on: NCI-H23
[15] = tested on: HCT-116
[16] = tested on: IGROV-1
[17] = tested on: SNB-78
[18] = tested on: A549
[19] = tested on: HL-60
[20] = tested on: SK-MEL-2
[21] = tested on: HOP-62
[22] = tested on: HCC 2998
[23] = tested on: DMS-114
[24] = tested on: NCI-H460
[25] = tested on: ACHN
[26] = tested on: SF-268
[27] = tested on: EKVX
[28] = tested on: XF498
[29] = tested on: LXFL 529
[30] = tested on: 786-0
[31] = tested on: KM12
[32] = tested on: OVCAR-3
[33] = tested on: M19-MEL
[34] = tested on: UACC-257
[35] = tested on: K562
[36] = tested on: SNB-75
[37] = tested on: SW-620
[38] = tested on: SNB-19
[39] = tested on: SK-OV-3
[40] = tested on: U-251
[41] = tested on: Malme-3M
[42] = tested on: MOLT-4
[43] = tested on: SK-MEL-5
[44] = tested on: OVCAR-5
[45] = tested on: DMS-273
[46] = tested on: KM-20L2
[47] = tested on: A498
[48] = tested on: CCRF-CEM
[49] = tested on: HCT-15
[50] = tested on: TK-10
[51] = tested on: SN12C
[52] = tested on: SF-295
[53] = tested on: CAKI-1
[54] = tested on: SF-539
[55] = tested on: HT-29
[56] = tested on: HOP-18
[57] = tested on: DLD-1
[58] = tested on: SR

Compound: COc1ccc(CNc2cc(OC)cc(OC)c2)cc1
- GI50 [1]: > 49.7 µM (inactive)
- GI50 [2]: 52 µM (inactive)
- GI50 [3]: > 82 µM (inactive)
- GI50 [4]: > 100 µM (inactive)
- GI50 [5]: 43.8 µM (inactive)
- GI50 [6]: 51.5 µM (inactive)
- GI50 [7]: 56.8 µM (inactive)
- GI50 [8]: 58.9 µM (inactive)
- GI50 [9]: 61.1 µM (inactive)
- GI50 [10]: 23.1 µM (inactive)
- GI50 [11]: 68.9 µM (inactive)
- GI50 [12]: 29.7 µM (inactive)
- GI50 [13]: > 100 µM (inactive)
- GI50 [14]: 40.6 µM (inactive)
- GI50 [15]: 52.4 µM (inactive)
- GI50 [16]: > 71.6 µM (inactive)
- GI50 [17]: 29.6 µM (inactive)
- GI50 [18]: 60.8 µM (inactive)
- GI50 [19]: > 39.2 µM (inactive)
- GI50 [20]: > 74 µM (inactive)
- GI50 [21]: > 61.5 µM (inactive)
- GI50 [22]: > 87.1 µM (inactive)
- GI50 [23]: 39.4 µM (inactive)
- GI50 [24]: > 86.1 µM (inactive)
- GI50 [25]: > 69.3 µM (inactive)
- GI50 [26]: 33.9 µM (inactive)
- GI50 [27]: 60.8 µM (inactive)
- GI50 [28]: 63.5 µM (inactive)
- GI50 [29]: 49.3 µM (inactive)
- GI50 [30]: > 37.6 µM (inactive)
- GI50 [31]: 48.6 µM (inactive)
- GI50 [32]: 50.8 µM (inactive)
- GI50 [33]: 72.3 µM (inactive)
- GI50 [34]: 64 µM (inactive)
- GI50 [35]: 29.8 µM (inactive)
- GI50 [36]: 35.3 µM (inactive)
- GI50 [37]: > 100 µM (inactive)
- GI50 [38]: > 100 µM (inactive)
- GI50 [39]: > 66.7 µM (inactive)
- GI50 [40]: > 88.5 µM (inactive)
- GI50 [41]: > 56.6 µM (inactive)
- GI50 [42]: > 42.9 µM (inactive)
- GI50 [43]: 30.3 µM (inactive)

Compound: CC(=O)c1ccc2c(ccc(=O)n2C)c1
- GI50 [44]: > 100 µM (inactive)
- GI50 [45]: > 100 µM (inactive)
- GI50 [1]: > 100 µM (inactive)
- GI50 [2]: 93.8 µM (inactive)
- GI50 [3]: > 100 µM (inactive)
- GI50 [4]: > 100 µM (inactive)
- GI50 [46]: > 100 µM (inactive)
- GI50 [47]: > 100 µM (inactive)
- GI50 [6]: > 100 µM (inactive)
- GI50 [7]: > 100 µM (inactive)
- GI50 [48]: > 100 µM (inactive)
- GI50 [49]: > 100 µM
- GI50 [8]: > 100 µM (inactive)
- GI50 [9]: > 100 µM (inactive)
- GI50 [10]: 56.2 µM (inactive)
- GI50 [11]: > 100 µM (inactive)
- GI50 [50]: > 100 µM (inactive)
- GI50 [51]: > 100 µM (inactive)
- GI50 [13]: > 100 µM (inactive)
- GI50 [52]: > 100 µM (inactive)
- GI50 [14]: > 100 µM (inactive)
- GI50 [15]: > 100 µM (inactive)
- GI50 [16]: > 100 µM (inactive)
- GI50 [18]: > 100 µM (inactive)
- GI50 [19]: > 100 µM (inactive)
- GI50 [20]: > 100 µM (inactive)
- GI50 [53]: > 100 µM (inactive)
- GI50 [21]: > 100 µM (inactive)
- GI50 [22]: > 100 µM (inactive)
- GI50 [23]: > 100 µM (inactive)
- GI50 [24]: > 100 µM (inactive)
- GI50 [26]: > 100 µM (inactive)
- GI50 [27]: > 100 µM (inactive)
- GI50 [28]: > 100 µM (inactive)
- GI50 [54]: > 100 µM (inactive)
- GI50 [29]: > 100 µM (inactive)
- GI50 [30]: > 100 µM (inactive)
- GI50 [55]: > 100 µM (inactive)
- GI50 [31]: > 100 µM (inactive)
- GI50 [32]: > 100 µM (inactive)
- GI50 [33]: > 100 µM (inactive)
- GI50 [35]: > 100 µM (inactive)
- GI50 [36]: 38.7 µM (inactive)
- GI50 [37]: > 100 µM (inactive)
- GI50 [38]: > 100 µM (inactive)
- GI50 [39]: > 100 µM (inactive)
- GI50 [56]: > 100 µM (inactive)
- GI50 [57]: > 100 µM (inactive)
- GI50 [40]: > 100 µM (inactive)
- GI50 [41]: > 100 µM (inactive)
- GI50 [42]: > 100 µM (inactive)
- GI50 [43]: > 100 µM (inactive)

Compound: O=C(Nc1nc2ccccc2n1Cc1ccc(Cl)cc1)NC12CC3CC(CC(C3)C1)C2
- GI50 [44]: 91.2 µM (inactive)
- GI50 [45]: 13.8 µM (inactive)
- GI50 [1]: 48.9 µM (inactive)
- GI50 [2]: 17.3 µM (inactive)
- GI50 [4]: 25 µM (inactive)
- GI50 [46]: 64.7 µM (inactive)
- GI50 [5]: 20.5 µM (inactive)
- GI50 [6]: 16 µM (inactive)
- GI50 [7]: 34.1 µM (inactive)
- GI50 [48]: 76.7 µM (inactive)
- GI50 [49]: 71.6 µM
- GI50 [8]: 19.9 µM (inactive)
- GI50 [9]: 24 µM (inactive)
- GI50 [10]: 16.1 µM (inactive)
- GI50 [11]: 8.99 µM (inactive)
- GI50 [12]: 48 µM (inactive)
- GI50 [50]: 32.5 µM (inactive)
- GI50 [51]: 28.4 µM (inactive)
- GI50 [13]: 36.2 µM (inactive)
- GI50 [52]: 10.9 µM (inactive)
- GI50 [14]: 16.4 µM (inactive)
- GI50 [15]: 19.4 µM (inactive)
- GI50 [16]: 41 µM (inactive)
- GI50 [18]: 21.1 µM (inactive)
- GI50 [19]: > 100 µM (inactive)
- GI50 [58]: 27.9 µM (inactive)
- GI50 [20]: 26.9 µM (inactive)
- GI50 [53]: 34.7 µM (inactive)
- GI50 [21]: 17.1 µM (inactive)
- GI50 [22]: > 100 µM (inactive)
- GI50 [23]: 24.3 µM (inactive)
- GI50 [24]: 20.1 µM (inactive)
- GI50 [25]: 35.7 µM (inactive)
- GI50 [26]: 4.12 µM (inactive)
- GI50 [27]: 32.7 µM (inactive)
- GI50 [28]: 13.4 µM (inactive)
- GI50 [54]: 24.3 µM (inactive)
- GI50 [29]: 20.3 µM (inactive)
- GI50 [30]: 20.5 µM (inactive)
- GI50 [55]: 74.3 µM (inactive)
- GI50 [31]: 53.8 µM (inactive)
- GI50 [32]: 22.6 µM (inactive)
- GI50 [33]: 39.4 µM (inactive)
- GI50 [34]: 28.2 µM (inactive)
- GI50 [35]: 32.3 µM (inactive)
- GI50 [36]: 7.74 µM (inactive)
- GI50 [37]: 65.8 µM (inactive)
- GI50 [38]: 24.9 µM (inactive)
- GI50 [39]: 16.2 µM (inactive)
- GI50 [56]: 27.6 µM (inactive)
- GI50 [57]: 36.2 µM (inactive)
- GI50 [40]: 20.7 µM (inactive)
- GI50 [41]: 19.1 µM (inactive)
- GI50 [42]: > 100 µM (inactive)
- GI50 [43]: 33.3 µM (inactive)

Compound: Cc1cc2nc3c(C(OC4OC(CO)C(O)C(O)C4O)C(O)CO)nn(-c4ccccc4)c3nc2cc1C (centres undefined)
- GI50 [44]: > 100 µM (inactive)
- GI50 [1]: > 100 µM (inactive)
- GI50 [2]: > 100 µM (inactive)
- GI50 [3]: > 100 µM (inactive)
- GI50 [4]: > 100 µM (inactive)
- GI50 [46]: > 100 µM (inactive)
- GI50 [5]: > 100 µM (inactive)
- GI50 [47]: > 100 µM (inactive)
- GI50 [6]: > 100 µM (inactive)
- GI50 [7]: > 100 µM (inactive)
- GI50 [48]: > 100 µM (inactive)
- GI50 [49]: > 100 µM
- GI50 [10]: > 100 µM (inactive)
- GI50 [11]: > 100 µM (inactive)
- GI50 [12]: > 100 µM (inactive)
- GI50 [50]: > 100 µM (inactive)
- GI50 [51]: > 100 µM (inactive)
- GI50 [52]: > 100 µM (inactive)
- GI50 [14]: > 100 µM (inactive)
- GI50 [15]: > 100 µM (inactive)
- GI50 [17]: > 100 µM (inactive)
- GI50 [58]: > 100 µM (inactive)
- GI50 [21]: > 100 µM (inactive)
- GI50 [22]: > 100 µM (inactive)
- GI50 [23]: > 100 µM (inactive)
- GI50 [24]: > 100 µM (inactive)
- GI50 [25]: > 100 µM (inactive)
- GI50 [26]: > 100 µM (inactive)
- GI50 [27]: > 100 µM (inactive)
- GI50 [28]: > 100 µM (inactive)
- GI50 [54]: > 100 µM (inactive)
- GI50 [30]: > 100 µM (inactive)
- GI50 [55]: > 100 µM (inactive)
- GI50 [31]: > 100 µM (inactive)
- GI50 [32]: > 100 µM (inactive)
- GI50 [34]: > 100 µM (inactive)
- GI50 [35]: > 100 µM (inactive)
- GI50 [36]: 64 µM (inactive)
- GI50 [38]: > 100 µM (inactive)
- GI50 [39]: > 100 µM (inactive)
- GI50 [57]: > 100 µM (inactive)
- GI50 [40]: > 100 µM (inactive)
- GI50 [41]: > 100 µM (inactive)
- GI50 [42]: > 100 µM (inactive)
